Measurements reported in a melting point compilation (Tetko et al.; mined from patent text by program, amines drawn as free bases though some values may be those of a salt).

Compound | melting point [°C]
COc1ccc(CCNC(=S)Cc2nnnn2C)cc1OC | 90 to 92
CC1CC(=O)NN=C1c1ccc(-n2cnc3c2CCCC3)cc1 (stereo not given) | 199 to 200
CC1(C)CC2(CC(C)(C)N1)NC(=O)N(CC(O)COc1ccc(Cc3ccc(OCC(O)CN4C(=O)NC5(CC(C)(C)NC(C)(C)C5)C4=O)cc3)cc1)C2=O (stereo not given) | 113 to 118
COc1cc2c(=O)n(C)c(-c3ccc(OC4CCN(C5CCC5)CC4)cc3)nc2cn1 | 146 to 148
CCc1ccc2oc(C(=O)Nc3ccc(-c4ccc(S(=O)(=O)NC(C(=O)O)C(C)C)cc4)cc3)c(C)c2c1OC(C)C (stereo not given) | 159 to 162
CC(=O)c1ccc(-n2c(CCl)nc3ccccc3c2=O)cc1 | 180 to 181
CCOC(=O)c1sc(OCC)c2c1CCc1cnn(C)c1-2 | 109 to 110
O=C1NC(=O)C(=Cc2ccc(N3CCC4(CC3)OCCO4)c(F)c2)S1 | 159 to 160
CCOC(=O)c1ncn(C2OC(COC(=O)c3ccccc3)C(OC(=O)c3ccccc3)C2OC(=O)c2ccccc2)c1C(=O)OCC (stereo not given) | 134 to 136
NS(=O)(=O)c1cccnc1OC1CCCC1 | 134 to 135
OC1(Cn2cncn2)CCCCC12OC2c1ccc(Cl)cc1 (stereo not given) | 150
NCc1ccc(CC(N)=O)cc1 | 138 to 140
COC(=O)C(=CNc1sccc1C(=O)O)SC | 192 to 194
O=C1C(=O)N2CCOc3cc([N+](=O)[O-])cc1c32 | 230 to 232
COCC1=C(C(=O)OC)C(c2ccc(Br)cc2)C(C(=O)OC)=C(COC)N1 | 162 to 163
Cc1cc(C(CC2CCCC2)c2ccc(S(C)(=O)=O)cc2)[nH]c1C(=O)O (stereo not given) | 127

Compound | melting point [°C]
CC1(C)CCCN(C2c3cc4nonc4cc3OC(C)(C)C2O)C1=O (stereo not given) | 114 to 115
Cc1ccc(SCC2=NOCN2)cc1 | 85
Cc1cc(-c2ccc(F)cc2)c(C=CC=O)o1 | 89 to 90
NNc1ccc2c(=O)[nH]ccc2c1 | 270
CSC1=NCCN1C(=O)c1cccnc1Cl | 100 to 102
CCOC(=O)COn1ccncc1=O | 98 to 100
COC(=O)c1nsc(S)n1 | 126 to 127
CC(=O)C1COc2ccccc2C1=O (stereo not given) | 81 to 83
C=CCc1ccc2oc(C(=O)OCC)cc(=O)c2c1O | 99 to 100
O=C(CC1CCCCC1=O)c1ccc(Cl)cc1 (stereo not given) | 56 to 58
CN1CCN(C(=O)N2CC(Oc3ccc(Br)cc3)C2)CC1 | 91 to 95
O=C1N[C@H](Cc2ccc(C(F)(F)F)cc2)[C@H](c2ccc(F)c(F)c2)O1 (racemic) | 157 to 158
O=C(Cc1ccc2c(c1)OCO2)N[C@H]1CC[C@H](CCN2CCC(c3cccc4c3CCO4)CC2)CC1 | 209
CCN1CC(NC(=O)c2ccc(N)cc2)CN1CC | 119 to 121
Cc1cc(C2=NN(C3=NNC(=O)CS3)[C@H](C)Cc3cc4c(cc32)OCO4)ccc1[N+](=O)[O-] | 207 to 211

The next lines start with the values.

melting point [°C] | Compound
345 to 348 | Cc1[nH]c(-c2ccccc2)c2nc(-c3ccccc3)[nH]c(=O)c12
48 to 50 | c1cc2c3c(cccc3c1)C(NCCCCCCCn1ccnc1)=N2
178 to 180 | O=C(OCn1cc(F)c(=O)n(COC(=O)c2ccccc2)c1=O)c1ccccc1
248 to 251 | CC1CC(=O)NN=C1c1ccc2c(ccc(=O)n2C)c1 (stereo not given)
240 to 241 | Cc1ccccc1C(=O)Nc1ccc(C(=O)N2CCS(=O)c3ccccc32)cc1 (stereo not given)
95 to 96 | O=C(O)CC(O)c1ccc(-c2ccc(Cl)c(Cl)c2)o1 (stereo not given)
> 300 | CCCNC(=O)Nc1ccc(-c2cc3[nH]c(=O)[nH]c3nc2C)cc1
159 to 160 | Cc1ccc(-c2ccc3c(=O)ccoc3c2)cc1
238 to 240 | OCc1ccc(-c2ccc3nc(-c4ccccc4)cn3c2)cc1
199 to 201 | Cn1nc2c(-c3ccc(Cl)cc3Cl)cccc2c1-c1nnco1
213 to 214 | N#CN=C(Nc1cncc(N)c1)NC1(c2ccccc2)CCC1
167 to 169 | COc1ccc(C(=NO)c2ccccc2F)c(O)c1C
100 to 101 | Cc1noc(CCNC(c2ccccc2)(c2ccccc2)c2ccccc2)n1
149 to 150 | COc1cc(COc2nn(-c3ccccc3)cc2Cn2cncn2)ccc1OCc1nc(-c2ccco2)oc1C
127 to 128 | O=C(F)[C@@H]1C[C@H](F)CN1C(=O)OCC1c2ccccc2-c2ccccc21
100 | Cc1ccc2cccc(OCc3c(Cl)ccc(S(=O)(=O)N(CCCCCCCC(=O)O)Cc4ccccc4)c3Cl)c2n1
202 to 205 | CC(=O)Nc1cccc(Oc2cc(-c3ccc(C(F)(F)F)cc3)ncn2)c1
68 to 70 | CC(=O)c1cccc(Oc2ncccc2C(=O)NCc2ccc(C(C)(C)O)cc2F)c1
61 to 63 | CCCCCCC(C)Nc1ccc2c(c1)CCN2c1ncnc2cc(OC)c(OC)cc12 (stereo not given)
167 to 169 | CC(C)(CCCOc1ccc(CCC(=O)c2ccc(-c3ccc(C(F)(F)F)cc3)s2)c(Cl)c1Cl)C(=O)O

melting point [°C] | Compound
204 to 205 | CCCCc1ncc(/C=C(\Cc2cccs2)C(=O)O)n1Cc1ccc(C(=O)O)c(C(=O)O)c1
300 | CN(C)c1ccc(NC2=CC(=O)C(N)=CC2=O)cc1
267 to 268 | O=C(NCc1cocn1)c1cc(-n2cnn(Cc3ccc(F)cc3)c2=O)n[nH]1
154 to 157 | CN(C)CCCNc1ccc(NCCCN(C)C)c2c1C(=O)c1c(O)ccc(O)c1C2=O
234 to 235 | CCCCCC(=O)Nc1ccc2scc(Cc3ccc(C(=O)O)cc3OC)c2c1
65 to 66 | CC1CCC(Oc2cc(F)cc(C(=O)Nc3ccc(OCCN4CCOCC4)c4ccccc34)c2)C1 (stereo not given)
131 to 132 | CCOc1cc(OCCCc2cn(-c3ccc(C(F)(F)F)cc3)nc2OCC)ccc1CCC(=O)O
230 to 233 | CCc1ccccc1-c1cccc2[nH]c(C(=O)O)cc12
221 to 225 | O=C(NS(=O)(=O)c1ccccc1)c1ccc2nc(C3CC3)n(Cc3ccc(-c4ccccc4)cc3)c2c1
224 to 226 | Cc1ccccc1-c1cnc2c(C(F)(F)F)cccc2c1-c1cccc(NC(=O)Nc2ccccc2Cl)c1
88 to 90 | COc1ccc(CC(NC(=O)OCc2ccccc2)C(=O)C=[N+]=[N-])cc1 (stereo not given)
91 to 93 | COCOc1ccc(CO)c2cccc(C)c12
247 to 249 | O=C1OC2(CCN(C(=O)Nc3ncc(-c4ccccc4)cn3)CC2)c2cccc(F)c21
69 to 71 | O=C(OCOC(=O)c1ccccc1)Oc1ccc([N+](=O)[O-])cc1
81 to 86 | CCc1nc2c(C)cc(C)nc2n1Cc1ccc(C(CC(=O)NS(=O)(=O)c2ccccc2)c2ccccc2)cc1 (stereo not given)
237 to 239 | O=C(NC(Cc1ccc(OCc2ccccc2)cc1)C(=O)O)c1cn2cc(-c3ccc(Cl)cc3Cl)ccc2n1 (stereo not given)
250 to 251 | Cc1cc2nc3c4cc(N)ccc4n(CCN(C)C)c3nc2cc1C
173 to 174 | CCOC(=NO)C(=O)C1=Nc2ccccc2C(=O)N(C)C1
273 to 275 | CS(=O)(=O)c1ccccc1-c1ccc(C(=O)O)cc1
